US7998985B2, “1,5-diphenyl-3-pyridinylamino-1,5-dihydropyrrolidin-2-one as CB1 receptor modulator” (Eli Lilly and Company, priority 2006, dated 2011)

How the values were obtained:
hCB1 [1] = target: T1, hCB1 (Homo sapiens, UniProt P21554); test: Antibody-capture SPA GTP-γ-35S binding, antagonist/inverse agonist mode, human CB1 (CHO membranes); assay type: biochemical; conditions: Human CB1 (CHO cells) membranes; vs saturating methanandamide; mean ± SEM; read-out: Inverse Agonist Potency (Kb)
Protocol: (§1) Antibody-Capture SPA GTP-γ-^35S Binding
(§2) In cell membranes expressing human or rat CB1 or CB2 receptor, test (3R,5R)-3-[1-methyl-1-(6-trifluoromethyl-pyridin-3-yl)-ethylamino]-1-(4-trifluoromethyl-phenyl)-5-(3-trifluoromethoxy-phenyl)-pyrrolidin-2-one 4-methylbenzenesulfonate (referred to as “Example 2”) for its antagonist/inverse agonist functional GTP-binding. In a 96 well format using a modified antibody capture technique (DeLapp et al., 1999), measure GTP-γ^35S binding. Briefly incubate for 30 minutes at room temperature the GTP-binding assay buffer (20 mM Hepes, 100 mM NaCl, 5 mM MgCl2, pH 7.4), the CHO or Sf9 cell membranes expressing CB1 or CB2, (Applied Cell Sciences, Gaithersburg, Md.; PerkinElmer Life Sciences, Boston, Mass.; prepare membranes as previously described (DeLapp et al., 1999)), Example 2 and the 500 pM GTP-γ-^35S (PerkinElmer Life Sciences, Boston, Mass.). Perform antagonist dose responses in the presence of a saturating dose of a full agonist (methanandamide). […]
(§3) To analyze data, subtract background from all wells. […] Determine Kb values using a modification of the Cheng-Prusoff relationship: Kb=IC50/(1+[agonist]/EC50) where IC50 is determined from a four parameter fit of displacement curves, [agonist]=EC50 of full agonist, and EC50 is determined from a four parameter fit of a full agonist concentration response curve (Cheng and Prusoff 1973). […]

rat CB1 receptor = target: T2, rat CB1 receptor (Rattus norvegicus, UniProt P20272); test: Antibody-capture SPA GTP-γ-35S binding, antagonist/inverse agonist mode, rat CB1 (CHO membranes); assay type: biochemical; conditions: Rat CB1 (CHO cells) membranes; vs saturating methanandamide; mean ± SEM; read-out: Inverse Agonist Potency (Kb)
T2 construct: purchased Applied Cell Sciences, Gaithersburg, Md; PerkinElmer Life Sciences, Boston, Mass; host or cells: CHO cells (recombinant expression), membranes
T2 sequence (P20272 whole entry): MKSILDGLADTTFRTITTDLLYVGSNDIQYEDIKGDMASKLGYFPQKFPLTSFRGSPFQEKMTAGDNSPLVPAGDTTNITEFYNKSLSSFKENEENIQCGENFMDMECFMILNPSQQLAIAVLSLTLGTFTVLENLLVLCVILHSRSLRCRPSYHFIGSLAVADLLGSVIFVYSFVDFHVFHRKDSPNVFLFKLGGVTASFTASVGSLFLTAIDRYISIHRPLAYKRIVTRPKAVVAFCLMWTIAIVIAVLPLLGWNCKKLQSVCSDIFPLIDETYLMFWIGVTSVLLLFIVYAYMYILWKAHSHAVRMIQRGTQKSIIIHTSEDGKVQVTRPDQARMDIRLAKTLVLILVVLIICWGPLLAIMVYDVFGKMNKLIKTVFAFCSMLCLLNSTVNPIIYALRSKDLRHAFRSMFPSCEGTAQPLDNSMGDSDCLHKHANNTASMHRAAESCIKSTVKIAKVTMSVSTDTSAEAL
Protocol: as §1, §2, §3

human CB2 receptor = target: T3, human CB2 receptor (Homo sapiens, UniProt P34972); test: GTP-γ-35S binding, agonist mode, human CB2 (Sf9 membranes); assay type: biochemical
T3 construct: purchased Applied Cell Sciences, Gaithersburg, Md; PerkinElmer Life Sciences, Boston, Mass; host or cells: Sf9 insect cells (recombinant expression), membranes
T3 sequence (P34972 whole entry): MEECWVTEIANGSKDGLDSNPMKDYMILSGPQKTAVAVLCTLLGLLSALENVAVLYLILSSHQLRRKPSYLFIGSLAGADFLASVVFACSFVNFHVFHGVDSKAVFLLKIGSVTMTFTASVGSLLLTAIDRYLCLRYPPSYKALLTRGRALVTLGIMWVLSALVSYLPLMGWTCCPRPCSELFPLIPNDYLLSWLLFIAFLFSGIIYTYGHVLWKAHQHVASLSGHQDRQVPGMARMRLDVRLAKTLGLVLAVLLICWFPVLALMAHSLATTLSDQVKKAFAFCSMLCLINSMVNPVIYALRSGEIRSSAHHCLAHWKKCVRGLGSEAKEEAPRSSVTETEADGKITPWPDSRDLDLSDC

male Sprague-Dawley rats = test: Microdialysis of monoamines and metabolites in prefrontal cortex; assay type: in vivo; conditions: rat prefrontal cortex microdialysate; doses as low as 1 mg/kg, p.o.
Protocol: Methods: Implant male Sprague-Dawley rats (260-300 g, Taconic Farms, Germantown, N.Y.) with a cannula (BAS, West Lafayette, Ind.) in the prefrontal cortex (PFC) 5-7 days before the experiment. Insert a concentric type probe with a 4 mm membrane tip extending below the cannula through the cannula about 16 hours before the experiment began and collect the microdialysate from prefrontal cortex and analyze for monoamines and their metabolites. Calculate all microdialysis data as percent change from dialysate basal concentrations with 100% defined as the average of the final three drug pre-injection values and each group having 5-6 rats. Analyze data with ANOVA and follow by a post-hoc Bonferroni test.

[2] = tested on: alcohol-preferring (P) rats; test: 12-hour ethanol consumption in alcohol-preferring rats (P rats); assay type: in vivo, rat; conditions: female P rats, 15% (v/v) ethanol, continuous free access; Example 2 given p.o.
From the text: Evaluate Example 2 for its ability to reduce consumption of ethanol in rats selectively bred for high oral ethanol intake (P rats). In addition, study the effects of Example 2 under conditions in which effects of the compound on motivation or the control of behavior by ethanol could be assessed.
Methods: Study the effects of Example 2 on female, alcohol-preferring (P) rats on alcohol consumption under a continuous free access paradigm. For comparative purposes test the standard opioid antagonist naltrexone. Monitor voluntary consumption of 15% (v/v) ethanol. Suspend Example 2 in vehicle (1% CMC, 0.5% SLS, 0.08% povidone, 0.05% Dow Corning antifoam 1510 US) and give p.o. 3 hours prior to the onset of the dark cycle. In addition, measure locomotor activity via infrared sensor.

[3] = tested on: diet-induced obese (DIO) male Long-Evans rats; test: Feeding model in diet-induced obese (DIO) rats, 14 days; assay type: in vivo, rat
From the text: Methods: Administer Example 2 to diet-induced obese (DIO) male Long-Evans rats. Establish DIO by ad lib feeding from weanling of a diet consisting of 40% fat, 39% carbohydrate and 21% protein caloric content for at least 12 weeks. Define compound potency by T17 (the dose required to produce a difference from the vehicle group of 17 grams). This represents a minimally biologically relevant reduction of 3-4% of body weight compared to vehicle treatment after 2 weeks.

[4] = tested on: female Sprague-Dawley rats; test: Atypical antipsychotic (olanzapine) weight gain model; assay type: in vivo, rat; conditions: 0.3 and 1 mg/kg Example 2 plus olanzapine, days 15-28
From the text: Methods: Maintain adult lean, female Sprague-Dawley rats ad libitum on normal rodent chow Purina LabDiet 5001 (12.3% fat) and water. […] Follow food intake, monitor body weight and change in fat mass over a two week treatment.

hCB1 [5] = target: T1, hCB1; test: GTP-γ-35S binding, agonist mode, human CB1 (Sf9 membranes); assay type: biochemical; set-up: purchased Applied Cell Sciences, Gaithersburg, Md; PerkinElmer Life Sciences, Boston, Mass; host or cells: Sf9 insect cells (recombinant expression), membranes
[6] = normalised to full agonist methanandamide

T1 sequence (P21554 whole entry): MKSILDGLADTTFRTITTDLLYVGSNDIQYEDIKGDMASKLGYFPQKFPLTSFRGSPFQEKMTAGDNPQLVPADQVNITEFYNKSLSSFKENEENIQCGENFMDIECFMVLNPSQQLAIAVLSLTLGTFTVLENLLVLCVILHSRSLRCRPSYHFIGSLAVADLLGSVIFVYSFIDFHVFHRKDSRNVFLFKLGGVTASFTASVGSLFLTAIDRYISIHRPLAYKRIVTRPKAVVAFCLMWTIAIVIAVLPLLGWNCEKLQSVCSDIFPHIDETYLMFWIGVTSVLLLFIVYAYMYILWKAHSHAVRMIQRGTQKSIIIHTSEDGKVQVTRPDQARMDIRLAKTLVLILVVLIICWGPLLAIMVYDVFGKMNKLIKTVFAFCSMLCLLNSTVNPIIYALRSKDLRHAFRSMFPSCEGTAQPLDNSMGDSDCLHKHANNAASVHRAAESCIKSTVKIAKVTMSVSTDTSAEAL

Kb (hCB1 [1]): 0.71 ± 0.26 nM | Kb (rat CB1 receptor): 1.27 ± 0.2 nM | Agonist Potency EC50 (nM) (human CB2 receptor): No measurable activity | Agonist Efficacy % (human CB2 receptor; [6]): 0% | Agonist Efficacy % (hCB1 [5]; [6]): −47.9 ± 4.7% | EC50 (hCB1 [5]; read-out: Agonist Potency EC50): 0.58 ± 0.05 nM
SMILES: CC(C)(N[C@@H]1C[C@H](c2cccc(OC(F)(F)F)c2)N(c2ccc(C(F)(F)F)cc2)C1=O)c1ccc(C(F)(F)F)nc1.Cc1ccc(S(=O)(=O)O)cc1 [Example 2, (3R,5R)-3-[1-methyl-1-(6-trifluoromethyl-pyridin-3-yl)-ethylamino]-1-(4-trifluoromethyl-phenyl)-5-(3-trifluoromethoxy-phenyl)-pyrrolidin-2-one, 4-methylbenzenesulfonate (1:1)]
cortical monoamine and metabolite levels (male Sprague-Dawley rats): Increase rat cortical monoamine and metabolite levels | consumption of ethanol [2]: decreased in a dose-dependent manner | fat free mass (QNMR) [3]: minimal changes in fat free mass at one of the highest doses | cumulative body weight ([3]; 14-day oral treatment): reduction of cumulative body weight | T17 (dose producing a 17 gram body weight difference from vehicle) ([3]; 14-day oral treatment, estimated): 0.13 mg/kg | efficacy dose (T17) for change in body mass from control ([3]; daily oral, 14 days, as restated): 0.13 mg/kg/day | fat mass (QNMR) ([3]; doses 0.1-10 mg/kg): significant reductions in fat mass | cumulative food intake ([3]; once daily orally, 14 days): Decrease cumulative food intake | fat free mass under olanzapine [4]: no changes in fat free mass | fat mass gain under olanzapine [4]: significant reduction in fat mass gain
